From EPA's ToxValDB 9.5 (doi:10.2903/j.efsa.2010.1876)
Converted amounts (≈) assume the structure as drawn. “And” between values parts separate entries of the source, which are not always exact repeats. Identical values can stand only once.

Experiments:
[1] = system: Daphnia magna; conditions: chronic/long-term; duration: 22 days; reproduction
[2] = system: Oncorhynchus mykiss; conditions: chronic/long-term; duration: 28 days; growth
[3] = system: Tagia sp.
[4] = system: Colinus virginianus; conditions: acute; oral; diet; mortality
[5] = system: Coturnix japonica; conditions: acute; oral; mortality
[6] = system: Apis mellifera; conditions: acute; duration: 48 hours; oral; unspecified; mortality
[7] = system: Rattus norvegicus
[8] = system: Mus musculus; conditions: acute; oral; mortality
[9] = system: Lepomis macrochirus; conditions: acute; duration: 96 hours; mortality
[10] = system: Anas platyrhynchos; conditions: reproductive
[11] = system: Typhlodromus pyri; assay: LR50; higher = less toxic; conditions: not reported; mortality

SMILES | NOEC [1] | NOEC [2] | LC50 ([3]; acute, mortality) | NOEC ([3]; chronic/long-term, duration: 56 days) | LC50 [4] | LD50 [5] | LD50 [6] | NOAEL ([7]; chronic, duration: 2 years, clinical chemistry) | NOAEL ([7]; developmental, development) | LD50 [8] | LC50 [9] | NOEC [10] | LR50 [11] | NOAEL ([7]; reproduction developmental)
CC(C)(C)[C@H](O)[C@H](Cc1ccc(Cl)cc1)n1cncn1 (racemic) [Paclobutrazol] | 0.32 mg/L | 3.3 mg/L | > 1000 mg/kg | 1.69 mg/kg | > 2790 mg/kg-day | > 2100 mg/kg | > 2 µg/piece | 2.2 mg/kg-day | 10 mg/kg-day | 490 mg/kg | 23.6 µg/mL (≈ 80.3 µM) | 119 mg/kg-day | > 1000 g/ha | 
c1nc[nH]n1 [1H-1,2,4-Triazole] |  |  |  |  |  |  |  |  |  |  |  |  |  | 17 mg/kg-day and 30 mg/kg-day
NC(Cc1ncn[nH]1)C(=O)O (stereo not given) [1,2,4-Triazole-3-alanine] |  |  |  |  |  |  |  |  | 100 mg/kg-day |  |  |  |  | 
